The results in this text go back to US20190352276A1, “INHIBITORS OF BRUTON'S TYROSINE KINASE” (Joint Stock Company "Biocad", priority 2016, published 2019).

Each structure is given as a SMILES string. Read-outs that look alike come from different tables or passages of the source. Bounds are passed on as bounds.

Data set [1] can be described thus: General cytotoxicity on HepG2 cells (CC50; therapeutic index CC50 HepG2/IC50 Mino). To be noted: human, HepG2 cells (hepatocellular carcinoma), 72 hours, Alamar Blue. The class given is cell-based. Put shortly: (§1)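 Alamar Blue viability after 72 h exposure to compounds (final 200 μM–4 μM) gave CC50; HepG2 plated 2*10^4/well in DMEM 24 h beforehand. Therapeutic index expressed as ratio of HepG2 CC50 to Mino antiproliferative IC50.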

In data set [2] the test system is HepG2 cells (hepatocellular carcinoma). The description is as above. The class given is cell-based. To be noted: therapeutic index. The method in brief: as §1
For data set [3], the target named is T1, recombinant Btk kinase enzyme (Homo sapiens, UniProt Q06187).
T1 construct: purchased SignalChem B10-10H
T1 sequence (Q06187 whole entry): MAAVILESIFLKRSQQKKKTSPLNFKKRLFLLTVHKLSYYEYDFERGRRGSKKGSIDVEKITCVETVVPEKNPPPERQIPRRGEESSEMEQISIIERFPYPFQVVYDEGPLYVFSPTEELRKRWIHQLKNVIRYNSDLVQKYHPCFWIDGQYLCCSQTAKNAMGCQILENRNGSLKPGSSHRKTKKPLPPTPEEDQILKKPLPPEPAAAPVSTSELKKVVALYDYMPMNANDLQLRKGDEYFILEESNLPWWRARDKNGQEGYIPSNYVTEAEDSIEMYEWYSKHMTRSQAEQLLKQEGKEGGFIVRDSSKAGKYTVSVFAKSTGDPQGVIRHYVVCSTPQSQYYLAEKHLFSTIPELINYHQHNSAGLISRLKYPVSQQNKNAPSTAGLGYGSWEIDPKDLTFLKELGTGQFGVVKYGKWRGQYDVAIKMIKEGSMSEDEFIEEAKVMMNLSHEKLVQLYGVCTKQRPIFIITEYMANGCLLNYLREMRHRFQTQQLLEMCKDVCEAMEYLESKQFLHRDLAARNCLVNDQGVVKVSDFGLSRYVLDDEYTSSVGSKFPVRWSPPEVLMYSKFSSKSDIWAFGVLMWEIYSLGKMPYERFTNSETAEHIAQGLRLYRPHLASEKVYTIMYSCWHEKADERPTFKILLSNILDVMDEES
Kind of data set: In vitro inhibition of Btk kinase activity (ADP-Glo). The format is biochemical. As to conditions: read-out: IC50 kinase BTK. Put shortly: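 IC50 obtained by four-parameter logistic fitting of ADP-Glo luminescence, which reports ADP generated by the kinase. Reaction: recombinant Btk enzyme, 50 μM ATP, 0.5 mg/mL Poly(4:1 Glu,Tyr) peptide, incubated 180 minutes at 37° C. with test compound.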

Data set [4] deals with Z-138 (mantle cell lymphoma). The data set can be described thus: Antiproliferative activity, Z-138 cells (Alamar Blue). The format is cell-based. As to conditions: Homo sapiens. The method in brief:
(§2)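 Viability is measured with Alamar Blue after the lymphoma cells have spent 72 h with test compounds at 37 °C under 5% CO2. Roughly 3*10^4 cells are seeded per well in serum-supplemented RPMI-1640. Fluorescence is read at 540/590 nm, and IC50 is derived by four-parameter logistic regression.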
In general terms: Resazurin is reduced to fluorescent resorufin, in cell work by metabolically active cells.

The subject of data set [5] is Mino (mantle cell lymphoma). Kind of data set: Antiproliferative activity, Mino cells (Alamar Blue). The class given is cell-based. As to conditions: Homo sapiens. The method in brief: as §2
Data set [6] can be described thus: Stability in human blood plasma. As to conditions: 10 μM in pooled human blood plasma, incubated 4 hours at 37° C.
A short description of data set [7]: Chemical stability in artificial gastric fluid (SGF without enzymes). As to conditions: 10 μM in SGF without enzymes, pH=1.4, 37° C.
Setting [8] is: Table 10, average of several tests.
[9] abbreviates: Table 10, 72 h, average of several tests.

The CC50 is the concentration at which the toxic effect on the cells reaches its halfway point. Lower therefore signals harm at low concentration. One may read the IC50 as the concentration that inhibits the measured activity by half. Compound `C=CC(=O)N1CCC[C@@H](n2nc(-c3ccc(Oc4ccncc4)cc3)c3cncc(Cl)c32)C1` [BCD-BTK-125, (R)-1-(1-acryloylpiperidin-3-yl)-7-chloro-3-(4-(pyridin-4-yloxy)phenyl)-1H-pyrazolo[4,3-c]pyridine] came in with a CC50 at 72 h in data set [1] (Table 11) of 27.1 µM. Further, in data set [2] (Table 11), the “CC50 (HepG2)/IC50 (Mino)” value stood at 4.18. Besides, the half-maximal inhibitory concentration (IC50) in data set [3] (Table 9 kinase panel) was 0.109 µM; in data set [4] (Table 11, 72 h), 14.6 µM; in data set [5] (Table 11, 72 h), 7.3 µM.

The compound `C=CC(=O)N1CCC[C@@H](n2nc(-c3ccc(Oc4ccncc4)cc3)c3c(N)ncc(Cl)c32)C1` [BCD-BTK-139, (R)-1-(1-acryloylpiperidin-3-yl)-7-chloro-3-(4-(pyridin-4-yloxy)phenyl)-1H-pyrazolo[4,3-c]pyridin-4-amine] yielded a CC50 at 72 h in data set [1] (Table 11) of 39.6 µM. The “CC50 (HepG2)/IC50 (Mino)” value in data set [2] (Table 11) was determined as 3.88. The IC50 in data set [3] (Table 9 kinase panel) was determined as 0.00085 µM; in data set [4] (Table 11, 72 h) it was 21.1 µM; in data set [5] (Table 11, 72 h), 10.2 µM.

As for `C=CC(=O)N1CCC[C@@H](n2nc(-c3ccc(C(=O)Nc4ccccn4)cc3)c3cncc(Cl)c32)C1` [BCD-BTK-201], the CC50 at 72 h in data set [1] (setting [8]) was > 50 µM. Also, the “CC50 (HepG2)/IC50 (Mino)” value in data set [2] (Table 10) was >4.20. Moreover, the 50% inhibitory concentration (IC50) is 0.0191 µM in data set [3] (Table 8, ADP-Glo); 6.54 µM in data set [4] (setting [9]); 11.9 µM in data set [5] (setting [9]).

Take `C=CC(=O)N1CCC[C@@H](n2nc(-c3ccc(Oc4ccncc4C#N)cc3)c3cncc(Cl)c32)C1` [BCD-BTK-202, (R)-4-(4-(1-(1-acryloylpiperidin-3-yl)-7-chloro-1H-pyrazolo[4,3-c]pyridin-3-yl)phenoxy)nicotinonitrile]: the CC50 at 72 h in data set [1] (setting [8]) is 32 µM. In addition, the “CC50 (HepG2)/IC50 (Mino)” value in data set [2] (Table 10) worked out at 4.10. In addition, the IC50 in data set [3] (Table 8, ADP-Glo) worked out at 0.0746 µM; in data set [4] (setting [9]), 12.6 µM; in data set [5] (setting [9]), 7.79 µM.

Turning to `C=CC(=O)N1CCC[C@@H](n2nc(-c3ccc(Oc4cccnc4C(N)=O)cc3)c3cncc(Cl)c32)C1` [BCD-BTK-220, 3-(4-{7-chloro-1-[(3R)-1-(prop-2-enoyl)piperidin-3-yl]-1H-pyrazolo[4,3-c]pyridin-3-yl}phenoxy)pyridine-2-carboxamide], the CC50 at 72 h in data set [1] (setting [8]) was > 50 µM. Moreover, in data set [2] (Table 10), the “CC50 (HepG2)/IC50 (Mino)” value was >9.51. Further, the IC50 is 0.0535 µM in data set [3] (Table 8, ADP-Glo); 14.2 µM in data set [4] (setting [9]); 10.5 µM in data set [5] (setting [9]). For the same compound, the “Amount of substance in the sample, % (stability in human blood plasma)” value (shortened to “Amount of substance in the sample, %”) in data set [6] is on record as 90.2%. The “Amount of substance in the sample in % (chemical stability)” value (“Amount of substance in the sample in %” for short) in data set [7] is 100%.

The compound `C=CC(=O)N1CCC[C@@H](n2nc(-c3ccc(Oc4cccnc4C#N)cc3)c3cncc(F)c32)C1` [BCD-BTK-230, (R)-3-(4-(1-(1-acryloylpiperidin-3-yl)-7-fluoro-1H-pyrazolo[4,3-c]pyridin-3-yl)phenoxy)picolinonitrile] displayed a 50% cytotoxic concentration (CC50) at 72 h in data set [1] (setting [8]) of 57.6 µM. Further, the “CC50 (HepG2)/IC50 (Mino)” value in data set [2] (Table 10) is 5.87. Also, the IC50 in data set [3] (Table 8, ADP-Glo) was found to be 0.0105 µM; in data set [4] (setting [9]), 14.4 µM; in data set [5] (setting [9]), 9.81 µM. In addition, in data set [6], the “Amount of substance in the sample, %” value is on record as 93.3%. The “Amount of substance in the sample in %” value in data set [7] came to 99.9%.

In data set [1] (setting [8]), `C=CC(=O)N1CCC[C@@H](n2nc(-c3ccc(C(=O)Nc4ccccn4)cc3)c3c(N)ncc(C#N)c32)C1` [BCD-BTK-234, (R)-4-(1-(1-acryloylpiperidin-3-yl)-4-amino-7-cyano-1H-pyrazolo[4,3-c]pyridin-3-yl)-N-(pyridine-2-yl)benzamide] returned a CC50 at 72 h of 36.6 µM. For the same compound, in data set [2] (Table 10), the “CC50 (HepG2)/IC50 (Mino)” value worked out at 3.81. Moreover, the IC50 in data set [3] (Table 8, ADP-Glo) worked out at 0.00117 µM; in data set [4] (setting [9]), 16.8 µM; in data set [5] (setting [9]), 9.6 µM. Further, the “Amount of substance in the sample, %” value in data set [6] amounted to 83.5%. Also, the “Amount of substance in the sample in %” value in data set [7] is 100%.

For `C=CC(=O)N1CCC[C@@H](n2nc(-c3ccc(Oc4ccncc4)cc3)c3c(N)ncc(OC)c32)C1` [BCD-BTK-239, (R)-1-(1-acryloylpiperidin-3-yl)-4-amine-7-methoxy-3-(4-(pyridin-4-yloxy)phenyl)-1H-pyrazolo[4,3-c]pyridine], half-maximal cytotoxicity in data set [1] (setting [8]) (CC50 at 72 h) was put at 60.2 µM. Besides, the “CC50 (HepG2)/IC50 (Mino)” value in data set [2] (Table 10) was determined as 4.24. Also, the IC50 came out at 0.00238 µM in data set [3] (Table 8, ADP-Glo); 16 µM in data set [4] (setting [9]); 14.2 µM in data set [5] (setting [9]). For the same compound, the “Amount of substance in the sample, %” value in data set [6] came to 80.3%. Moreover, the “Amount of substance in the sample in %” value in data set [7] is on record as 100%.

Turning to `C=CC(=O)N1CCC[C@@H](n2nc(-c3ccc(C(=O)Nc4ccccn4)cc3)c3c(N)ncc(OC)c32)C1` [BCD-BTK-240, (R)-4-(1-(1-acryloylpiperidin-3-yl)-4-amino-7-methoxy-1H-pyrazolo[4,3-c]pyridin-3-yl)-N-(pyridin-2-yl)benzamide], in data set [1] (setting [8]), the CC50 at 72 h was > 100 µM. In addition, in data set [2] (Table 10), the “CC50 (HepG2)/IC50 (Mino)” value was >7.11. The half-maximal inhibitory concentration (IC50) in data set [3] (Table 8, ADP-Glo) amounted to 0.00225 µM; in data set [4] (setting [9]), 10.5 µM; in data set [5] (setting [9]), 14.1 µM. Moreover, the “Amount of substance in the sample, %” value in data set [6] was 100.0%. In addition, in data set [7], the “Amount of substance in the sample in %” value was 100%.

Take `C=CC(=O)N1CCC[C@@H](n2nc(-c3ccc(C(=O)Nc4ccccn4)cc3)c3c(N)nccc32)C1` [BCD-BTK-242, (R)-4-(1-(1-acryloylpiperidin-3-yl)-4-amino-1H-pyrazolo[4,3-c]pyridin-3-yl)-N-(pyridin-2-yl)benzamide]: half-maximal cytotoxicity in data set [1] (setting [8]) (CC50 at 72 h) was put at 52.5 µM. The “CC50 (HepG2)/IC50 (Mino)” value in data set [2] (Table 10) is 3.03. In addition, the IC50 stood at 0.00177 µM in data set [3] (Table 8, ADP-Glo); 16.5 µM in data set [4] (setting [9]); 17.3 µM in data set [5] (setting [9]). Also, the “Amount of substance in the sample, %” value in data set [6] is 100.0%. In addition, in data set [7], the “Amount of substance in the sample in %” value is 100%.

On to `C=CC(=O)N1CCC[C@@H](n2nc(-c3ccc(C(=O)Nc4cc(C(F)(F)F)ccn4)cc3)c3c(N)ncc(Cl)c32)C1` [BCD-BTK-251, (R)-4-(1-(1-acryloylpiperidin-3-yl)-4-amino-7-chloro-1H-pyrazolo[4,3-c]pyridin-3-yl)-N-(4-(trifluoromethyl)pyridin-2-yl)benzamide], for which the CC50 at 72 h in data set [1] (setting [8]) was > 50 µM. Further, the “CC50 (HepG2)/IC50 (Mino)” value in data set [2] (Table 10) is reported as >13.70. Moreover, the IC50 in data set [3] (Table 8, ADP-Glo) amounted to 0.00271 µM; in data set [4] (setting [9]), 4.46 µM; in data set [5] (setting [9]) it was 3.65 µM.

On to `C=CC(=O)N1CCC[C@@H](n2nc(-c3ccc(C(=O)Nc4cc(C(F)(F)CCC)ccn4)cc3)c3cncc(Cl)c32)C1` [BCD-BTK-252, (R)-4-(1-(1-acryloylpiperidin-3-yl)-7-chloro-1H-pyrazolo[4,3-c]pyridin-3-yl)-N-(4-(1,1-difluorobutyl)pyridin-2-yl)benzamide], for which the 50% cytotoxic concentration (CC50) at 72 h in data set [1] (setting [8]) was > 100 µM. Further, the “CC50 (HepG2)/IC50 (Mino)” value in data set [2] (Table 10) was >22.43. In addition, the IC50 in data set [3] (Table 8, ADP-Glo) turned out to be 0.0146 µM; in data set [4] (setting [9]), 14.9 µM; in data set [5] (setting [9]) it was 4.46 µM.

With `C=CC(=O)N1CCC[C@@H](n2nc(-c3ccc(C(=O)Nc4ncccc4F)cc3)c3c(N)ncc(C#N)c32)C1` [BCD-BTK-258, 4-{4-amino-7-cyano-1-[(3R)-1-(prop-2-enoyl)piperidin-3-yl]-1H-pyrazolo[4,3-c]pyridin-3-yl}-N-(3-fluoropyridin-2-yl)benzamide], the CC50 at 72 h in data set [1] (setting [8]) is > 50 µM. The “CC50 (HepG2)/IC50 (Mino)” value in data set [2] (Table 10) is recorded as >2.89. In addition, the IC50 in data set [3] (Table 8, ADP-Glo) was found to be 0.00117 µM; in data set [4] (setting [9]) it was 35.8 µM; in data set [5] (setting [9]) it was 17.3 µM. For the same compound, in data set [7], the “Amount of substance in the sample in %” value stood at 100%.

Regarding `C=CC(=O)N1CCC[C@@H](n2nc(-c3cnc(C(=O)Nc4cc(C(F)(F)CCC)ccn4)nc3)c3cncc(Cl)c32)C1` [BCD-BTK-292, (R)-5-(1-(1-acryloylpiperidin-3-yl)-7-chloro-1H-pyrazolo[4,3-c]pyridin-3-yl)-N-(4-(1,1-difluorobutyl)pyridin-2-yl)pyrimidine-2-carboxamide], the CC50 at 72 h in data set [1] (setting [8]) was > 100 µM. For the same compound, the “CC50 (HepG2)/IC50 (Mino)” value in data set [2] (Table 10) is reported as >29.81. Further, the IC50 was 0.00734 µM in data set [3] (Table 8, ADP-Glo); > 50 µM in data set [4] (setting [9]); 3.35 µM in data set [5] (setting [9]).
